Assay results reported in ChEMBL document CHEMBL1151425, “RNAIII-inhibiting peptide affects biofilm formation in a rat model of staphylococcal ureteral stent infection” (Antimicrob Agents Chemother, 2007).

Tests used:
Staphylococcus aureus [1] = assay: Antimicrobial activity against Staphylococcus aureus Smith diffuse infected in Wistar rat ureteral stent infection model containing 1 ug/ml drug-coated stent assessed as bacterial count on ureteral stent after 48 hrs; assay type: functional
Rattus norvegicus [2] = assay: Toxicity in Staphylococcus aureus Smith diffuse infected Wistar rat containing 1 ug/ml drug-coated ureteral stent assessed as mortality in presence of 10 mg/kg, ip teicoplanin; assay type: organism-based; set-up: dose 10 mg/kg, route intraperitoneal; settings: in vivo
Staphylococcus aureus [3] = assay: Potentiation of teicoplanin-induced antimicrobial activity against Staphylococcus aureus Smith diffuse infected in Wistar rat ureteral stent infection model containing drug-coated stent assessed as bacterial count on stent after 48 hrs; assay type: functional
Staphylococcus aureus [4] = assay: Antimicrobial activity against Staphylococcus aureus Smith diffuse infected in Wistar rat ureteral stent infection model; assay type: functional
Rattus norvegicus [5] = species: Rattus norvegicus; assay: Toxicity in Staphylococcus aureus Smith diffuse infected Wistar rat containing 1 ug/ml drug-coated ureteral stent assessed as mortality; assay type: organism-based; settings: in vivo, other
Rattus norvegicus [6] = species: Rattus norvegicus; assay: Toxicity in Staphylococcus aureus Smith diffuse infected Wistar rat containing 1 ug/ml drug-coated ureteral stent assessed as drug-related adverse effects; assay type: organism-based; settings: in vivo, other
Staphylococcus aureus [7] = assay: Antimicrobial activity against Staphylococcus aureus Smith diffuse infected in Wistar rat ureteral stent infection model containing 1 ug/ml drug-coated stent assessed as bacterial count in urine after 48 hrs; assay type: functional
Rattus norvegicus [8] = assay: Toxicity in Staphylococcus aureus Smith diffuse infected Wistar rat assessed as drug-related adverse effects at 10 mg/kg, ip; assay type: organism-based; set-up: dose 10 mg/kg, route intraperitoneal; settings: in vivo
Staphylococcus aureus [9] = assay: Potentiation of teicoplanin-induced antimicrobial activity against Staphylococcus aureus Smith diffuse infected in Wistar rat ureteral stent infection model containing drug-coated stent assessed as bacterial count in urine after 48 hrs; assay type: functional
Rattus norvegicus [10] = assay: Toxicity in Staphylococcus aureus Smith diffuse infected Wistar rat containing 1 ug/ml drug-coated ureteral stent assessed as drug-related adverse effects in presence of 10 mg/kg, ip teicoplanin; assay type: organism-based; set-up: dose 10 mg/kg, route intraperitoneal; settings: in vivo
Staphylococcus aureus [11] = assay: Antimicrobial activity against Staphylococcus aureus Smith diffuse infected in Wistar rat ureteral stent infection model assessed as bacterial count in urine at 10 mg/kg, ip after 48 hrs; assay type: functional; settings: route intraperitoneal
Rattus norvegicus [12] = assay: Toxicity in Staphylococcus aureus Smith diffuse infected Wistar rat assessed as mortality at 10 mg/kg, ip; assay type: organism-based; set-up: dose 10 mg/kg, route intraperitoneal; settings: in vivo
Staphylococcus aureus [13] = assay: Antimicrobial activity against Staphylococcus aureus Smith diffuse infected in Wistar rat ureteral stent infection model assessed as bacterial count on ureteral stent at 10 mg/kg, ip after 48 hrs; assay type: functional; settings: route intraperitoneal

**Q.** Which CFU (Staphylococcus aureus [1]) does the source give for H-YSPWTNF-NH2 here?
**A.** 67 ×10³ /ml

**Q.** And the Activity (Rattus norvegicus [2])?
**A.** Non-toxic

**Q.** What about the CFU (Staphylococcus aureus [3]) of the same compound?
**A.** <10 mL⁻¹

**Q.** What about the MIC (Staphylococcus aureus [4]) of the same compound?
**A.** 1 µg/mL

**Q.** What about the Activity (Rattus norvegicus [5]) of the same compound?
**A.** Non-toxic

**Q.** And the Activity (Rattus norvegicus [6])?
**A.** Non-toxic

**Q.** What about the CFU (Staphylococcus aureus [7]) of the same compound?
**A.** 4 ×10⁴ /ml

**Q.** What about the Activity (Rattus norvegicus [8]) of the same compound?
**A.** Non-toxic

**Q.** And the CFU (Staphylococcus aureus [9])?
**A.** <10 mL⁻¹

**Q.** And the Activity (Rattus norvegicus [10])?
**A.** Non-toxic

**Q.** Which CFU (Staphylococcus aureus [11]) does the source give for `CC(=O)N[C@@H]1[C@H](Oc2c3cc4cc2Oc2ccc(cc2Cl)[C@@H](O[C@@H]2O[C@@H](CO)[C@@H](O)[C@H](O)[C@@H]2NC(C)=O)[C@@H]2NC(=O)[C@H](NC(=O)[C@@H]4NC(=O)[C@H]4NC(=O)[C@@H](Cc5ccc(c(Cl)c5)O3)NC(=O)[C@H](N)c3ccc(O)c(c3)Oc3cc(O)cc4c3)c3ccc(O)c(c3)-c3c(O[C@H]4O[C@H](CO)[C@@H](O)[C@@H](O)[C@@H]4O)cc(O)cc3[C@@H](C(=O)O)NC2=O)O[C@@H](CO)[C@@H](O)[C@@H]1O` here?
**A.** 2.9 ×10⁴ /ml

**Q.** And the Activity (Rattus norvegicus [2])?
**A.** Non-toxic

**Q.** And the Activity (Rattus norvegicus [12])?
**A.** Non-toxic

**Q.** What about the Activity (Rattus norvegicus [5]) of the same compound?
**A.** Non-toxic

**Q.** And the CFU (Staphylococcus aureus [13])?
**A.** 3.8 ×10³ /ml

**Q.** What about the Activity (Rattus norvegicus [6]) of the same compound?
**A.** Non-toxic

**Q.** And the Activity (Rattus norvegicus [8])?
**A.** Non-toxic

**Q.** And the Activity (Rattus norvegicus [10])?
**A.** Non-toxic
